Reference: patent US6387909B1, “Thienopyranecarboxamide derivatives” (Recordati S.A. Chemical and Pharmaceutical Company, priority 1999, dated 2002)
Read-outs that look alike come from different tables or passages of the source.

Columns and labels:
[1] = system: prostatic urethral contractions induced by noradrenaline; settings: dog, i.v.; data from Leonardi et al. 1997; cited from earlier work
diastolic blood pressure [2] = settings: dog, i.v.; data from Leonardi et al. 1997; cited from earlier work
[3] = target: T1, human 5-HT1A-serotoninergic receptor (Homo sapiens, UniProt P08908); assay: Radioligand binding ([3H]8-OH-DPAT) to cloned 5-HT1A receptor in HeLa cell membranes; settings: read-out: Affinity (Ki) 5-HT1A
T1 construct: expressed in transfected cells; host or cells: HeLa
T1 sequence (P08908 1-422): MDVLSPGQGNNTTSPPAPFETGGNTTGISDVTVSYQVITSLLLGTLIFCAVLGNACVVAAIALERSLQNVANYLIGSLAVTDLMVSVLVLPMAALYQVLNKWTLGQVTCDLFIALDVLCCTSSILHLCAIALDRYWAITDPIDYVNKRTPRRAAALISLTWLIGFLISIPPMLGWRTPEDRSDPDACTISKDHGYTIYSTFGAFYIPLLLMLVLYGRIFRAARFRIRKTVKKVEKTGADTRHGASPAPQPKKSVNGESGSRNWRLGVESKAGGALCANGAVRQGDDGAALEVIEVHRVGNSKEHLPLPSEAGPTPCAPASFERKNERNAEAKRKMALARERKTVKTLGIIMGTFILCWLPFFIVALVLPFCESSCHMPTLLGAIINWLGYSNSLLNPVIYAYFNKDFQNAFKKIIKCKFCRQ
Experimental: HeLa cells were grown as monolayers in Dulbecco's modified Eagle's medium (DMEM), supplemented with 10% fetal calf serum and gentamicin (100 μg/mL), at 37° C. in 5% CO2. The cells were detached from the growth flask at 95% confluence by a cell scraper and were lysed in a buffer containing ice cold 5 mM Tris, 5 mM EDTA (pH 7.4). The homogenates were centrifuged at 40,000×g for 20 minutes and the membranes were resuspended in a small volume of ice-cold buffer containing 5 mM Tris and 5 mM, EDTA (pH 7.4), and immediately frozen and stored at −70° C. until use.
Non-specific binding was determined in the presence of 10 μM 5-HT. Incubation was stopped by addition of ice-cold Tris buffer and rapid filtration through Schleicher & Schuell GF52 filters that had been pretreated with 0.2%-polyethyleneimine.
(§1) Data were expressed as mean of Ki.

α1L adrenoceptor = target: T2, α1L adrenoceptor (Oryctolagus cuniculus, UniProt O02824); assay: Functional antagonism of noradrenaline-induced contractions of rabbit aorta pretreated with chloroethylclonidine; assay type: biochemical; settings: NA-induced contractions
T2 sequence (O02824 1-466): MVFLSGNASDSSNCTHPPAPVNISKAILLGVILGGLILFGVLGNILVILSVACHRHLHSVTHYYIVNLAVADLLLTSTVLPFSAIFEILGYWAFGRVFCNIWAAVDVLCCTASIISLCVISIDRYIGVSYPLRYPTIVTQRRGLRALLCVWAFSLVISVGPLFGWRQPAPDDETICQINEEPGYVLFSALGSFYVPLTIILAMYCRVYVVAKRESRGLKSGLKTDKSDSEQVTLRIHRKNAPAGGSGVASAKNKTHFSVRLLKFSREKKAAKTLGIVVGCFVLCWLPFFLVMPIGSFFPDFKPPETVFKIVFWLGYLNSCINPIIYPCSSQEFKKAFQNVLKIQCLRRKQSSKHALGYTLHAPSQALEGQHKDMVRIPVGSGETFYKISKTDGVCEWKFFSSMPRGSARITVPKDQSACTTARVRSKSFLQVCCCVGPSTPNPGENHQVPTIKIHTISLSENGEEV
Experimental: Adult male New Zealand rabbits were sacrificed by cervical dislocation. The aorta was removed, placed in Krebs-Henseleit buffer and dissected free of adhering tissue. […] Desmethylimipramine (0.1 μM) and corticosterone (1 μM) to block neuronal and extraneuronal uptake of NA, (±)-propranol (1 μM) to block β adrenoceptors and yohimbine (0.1 μM) to block α2 adrenoceptors were added to the buffer.
The preparations were equilibrated for 60 minutes and then primed every 30 minutes with 10 μM NA for three times. The aortic rings were then incubated with the alkylating agent chloroethylclonidine (50 μM) for 30 minutes and then washed extensively three times, over a 30 min period before constructing the NA-concentration/response curve. Following washing, tissue was re-equilibrated for 45 min. Test drug was added and after 30 minutes, a second cumulative-NA-concentration/response curve was constructed. Each antagonist concentration was tested using 2-3 aortic rings from different rabbits.
Dose ratios (i.e., the ratio between the concentrations of noradrenaline required to produce half-maximal response in the presence and in the absence of the test antagonist) were calculated at each concentration of the compounds. The logarithm of these dose ratio −1 was plotted against the logarithm of the compound concentrations (Schild plot) to evaluate the affinity constant Kb.
When only one or two concentrations of the test compounds were utilised, the apparent Kb value was calculated using the formula: Kb=[B]/(DOSE RATIO-1), where B is the antagonist concentration.

[4] = target: T3, recombinant α1d-adrenoceptor (Homo sapiens, UniProt P25100); assay: Radioligand binding ([3H]prazosin) to cloned α1d adrenoceptor; settings: read-out: Affinity (Ki) α1d
T3 construct: expressed in transfected cells
T3 sequence (P25100 1-572): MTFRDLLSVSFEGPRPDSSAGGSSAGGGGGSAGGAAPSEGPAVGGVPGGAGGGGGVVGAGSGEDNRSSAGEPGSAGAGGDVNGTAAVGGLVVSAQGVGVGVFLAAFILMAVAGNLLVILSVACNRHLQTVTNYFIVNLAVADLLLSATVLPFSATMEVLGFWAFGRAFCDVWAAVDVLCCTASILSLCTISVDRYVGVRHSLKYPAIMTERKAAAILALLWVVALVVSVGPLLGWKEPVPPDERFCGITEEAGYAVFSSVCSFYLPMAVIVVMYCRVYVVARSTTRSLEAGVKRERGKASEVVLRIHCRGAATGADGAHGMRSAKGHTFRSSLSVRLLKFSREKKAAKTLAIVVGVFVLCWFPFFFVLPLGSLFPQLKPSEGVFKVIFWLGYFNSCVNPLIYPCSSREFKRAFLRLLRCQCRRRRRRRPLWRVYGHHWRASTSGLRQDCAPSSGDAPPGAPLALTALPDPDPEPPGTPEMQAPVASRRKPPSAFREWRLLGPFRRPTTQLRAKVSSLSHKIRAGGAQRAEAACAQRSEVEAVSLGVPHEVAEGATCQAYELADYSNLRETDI
Experimental: (§2) Determination of affinity for cloned subtypes of the α1-adrenoceptor was performed in membranes from cells transfected by electroporation with DNA expressing the genes encoding each α1-adrenoceptor subtype.
(§3) Non-specific binding was determined in the presence of 10 μM phentolamine. Incubation was stopped by addition of ice-cold Tris buffer and rapid filtration through Schleicher & Schuell GF52 filters that had been pretreated with 0.2%-polyethyleneimine.
as §1

[5] = target: T4, recombinant α1b-adrenoceptor (Homo sapiens, UniProt P35368); assay: Radioligand binding ([3H]prazosin) to cloned α1b adrenoceptor; settings: read-out: Affinity (Ki) α1b
T4 construct: expressed in transfected cells
T4 sequence (P35368 1-520): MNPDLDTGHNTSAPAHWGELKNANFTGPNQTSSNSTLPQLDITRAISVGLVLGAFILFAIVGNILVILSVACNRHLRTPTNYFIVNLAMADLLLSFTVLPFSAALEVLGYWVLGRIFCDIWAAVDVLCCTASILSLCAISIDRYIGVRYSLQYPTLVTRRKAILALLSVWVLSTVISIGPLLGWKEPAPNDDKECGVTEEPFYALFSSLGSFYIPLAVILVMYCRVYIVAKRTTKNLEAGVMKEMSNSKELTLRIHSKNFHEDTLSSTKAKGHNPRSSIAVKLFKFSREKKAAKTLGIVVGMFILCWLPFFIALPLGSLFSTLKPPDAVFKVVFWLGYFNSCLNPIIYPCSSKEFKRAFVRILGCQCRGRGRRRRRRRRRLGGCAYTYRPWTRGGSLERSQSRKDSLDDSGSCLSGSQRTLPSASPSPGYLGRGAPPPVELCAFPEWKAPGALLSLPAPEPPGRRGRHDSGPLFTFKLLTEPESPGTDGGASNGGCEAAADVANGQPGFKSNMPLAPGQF
Experimental: as §2, §3, §1

[6] = target: T5, recombinant α1a-adrenoceptor (Homo sapiens, UniProt P35348); assay: Radioligand binding ([3H]prazosin) to cloned α1a adrenoceptor; settings: read-out: Affinity (Ki) α1a
T5 construct: expressed in transfected cells
T5 sequence (P35348 1-466): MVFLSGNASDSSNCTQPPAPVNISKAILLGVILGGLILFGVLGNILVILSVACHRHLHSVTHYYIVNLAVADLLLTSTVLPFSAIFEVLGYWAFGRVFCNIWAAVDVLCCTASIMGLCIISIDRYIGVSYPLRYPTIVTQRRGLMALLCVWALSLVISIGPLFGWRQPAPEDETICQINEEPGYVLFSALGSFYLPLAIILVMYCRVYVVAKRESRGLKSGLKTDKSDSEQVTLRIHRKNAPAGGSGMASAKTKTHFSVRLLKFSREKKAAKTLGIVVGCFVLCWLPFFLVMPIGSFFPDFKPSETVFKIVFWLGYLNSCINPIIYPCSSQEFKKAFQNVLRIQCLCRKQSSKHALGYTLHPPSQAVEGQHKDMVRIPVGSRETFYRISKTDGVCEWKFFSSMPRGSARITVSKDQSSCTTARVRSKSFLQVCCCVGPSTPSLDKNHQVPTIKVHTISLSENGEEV
Experimental: as §2, §3, §1

diastolic blood pressure [7] = assay: Blood pressure in anaesthetized dogs after intravenous administration; assay type: in vivo; settings: dog, i.v.
Experimental: (§4) The experiments were performed according to the method of Imagawa et al. (J. Pharmacol. Methods, 22:103-111, 1989), with substantial modifications, as follows: adult male beagle dogs, weighing 8-10 kg, were anaesthetized with pentobarbital sodium (30 mg/kg i.v. and 2 mg/kg/h i.v.), intubated and spontaneously ventilated with room air. In order to monitor systemic blood pressure (BP), a polyethylene (PE) catheter was introduced into the aortic arch through the left femoral artery. A collateral of the left femoral vein was cannulated for infusion of anaesthetic, and the right femoral vein was cannulated for administration of compounds. For intraarterial (i.a.) injection of noradrenaline (NA), a PE catheter was introduced into the lower portion of the abdominal aorta via the right external iliac artery. Through such procedure, NA was selectively distributed to the lower urinary tract. A paramedian vertical suprapubic incision extending from the base of the pelvis to the mid-abdominal region was made and the bladder and the prostate were exposed. The bladder was manually emptied with a syringe. Prostatic urethral pressure was monitored with a Mikro-tip catheter (5F) introduced into the bladder via the external urethral meatus, and withdrawn until the pressure transducer was positioned in the prostatic region of the urethra. A ligature was secured between the neck of the bladder and urethra to isolate the response of the latter and to avoid any interaction with the bladder. Another ligature was put around the Mikro-tip catheter at the external meatus, to secure the catheter itself.
(§5) After a stabilizing period following the surgical procedure (30 minutes), in which arterial and prostatic urethral pressures were continuously monitored as basal values, i.a. administration of NA was made at intervals of 20 minutes.
(§6) The NA doses were chosen to produce an increase of at least 100% in urethral pressure. The test compounds were administered intravenously in a cumulative manner with intervals of 15-20 minutes between administrations. […]

[8] = system: prostatic urethral contractions induced by noradrenaline; assay: Urethral contractions induced by noradrenaline injection in anaesthetized dogs after intravenous administration; assay type: in vivo; settings: dog, i.v.
Experimental: as §4, §5, §6

Row | Compound | Ki [3] | pKb, functional affinity for the α1L adrenoceptor subtype (α1L adrenoceptor) | Ki [4] | Ki [5] | Ki [6] | UC ID50 NA (dose inhibiting by 50% the urethral contractions induced by noradrenaline) [1] | DBP ED25 (dose inducing a 25% decrease in diastolic blood pressure) (diastolic blood pressure [2]) | DBP ED25 (dose inducing a 25% decrease in diastolic blood pressure) (diastolic blood pressure [7]) | UC ID50 NA (dose inhibiting by 50% the urethral contractions induced by noradrenaline) [8]
1 | COc1ccccc1N1CCN(CCCNC(=O)c2cccc3c(=O)c(C)c(-c4ccccc4)oc23)CC1 [Compound A] | – | – | – | – | – | 0.0024 mg/kg | 0.243 mg/kg | – | –
2 | COc1ccc(OCC(F)(F)F)cc1N1CCN(CCCNC(=O)c2csc3c(=O)cc(-c4ccccc4)oc23)CC1 [Example 6, N-{3-[4-[2-Methoxy-5-(2,2,2-trifluoroethoxy)phenyl]-1-piperazinyl]propyl}-7-oxo-5-phenyl7H-thieno[3,2-b]pyran-3-carboxamide] | 1080 nM | – | 48.2 nM | 39.3 nM | 3.19 nM | – | – | – | –
3 | COc1ccc(Cl)cc1N1CCN(CCCNC(=O)c2csc3c(=O)cc(-c4ccccc4)oc23)CC1 [Example 1, N-{3-[4-(5-Chloro-2-methoxyphenyl)1-piperazinyl]propyl}-7-oxo-5-phenyl-7H-thieno[3,2-b]Pyran-3-carboxamide] | – | – | 4.12 nM | 2.53 nM | 0.58 nM | – | – | 0.28 mg/kg | 0.0053 mg/kg

Continued by falling Ki [4], values first:

Row | Ki [3] | pKb, functional affinity for the α1L adrenoceptor subtype (α1L adrenoceptor) | Ki [4] | Ki [5] | Ki [6] | Compound | UC ID50 NA (dose inhibiting by 50% the urethral contractions induced by noradrenaline) [1] | DBP ED25 (dose inducing a 25% decrease in diastolic blood pressure) (diastolic blood pressure [2]) | DBP ED25 (dose inducing a 25% decrease in diastolic blood pressure) (diastolic blood pressure [7]) | UC ID50 NA (dose inhibiting by 50% the urethral contractions induced by noradrenaline) [8]
4 | 26.2 nM | 7.92 | 3.6 nM | 23.2 nM | 0.6 nM | COc1ccccc1N1CCN(CCCNC(=O)c2csc3c(=O)cc(C(F)(F)F)oc23)CC1 [Example 4, N-{3-[4-(2-Methoxyphenyl)-1-piperazinyl]propyl}-7-oxo-5-trifluoromethyl-7H-thieno[3,2b]pyran-3-carboxamide] | – | – | – | –
5 | 88.5 nM | 8.66 | 2.45 nM | 3.47 nM | 0.17 nM | O=C(NCCCN1CCN(c2ccc(F)cc2OCC(F)(F)F)CC1)c1csc2c(=O)cc(-c3ccccc3)oc12 [Example 7, N-{3-[4-[4-Fluoro-2-(2,2,2-trifluoroethoxy)phenyl]-1-piperazinyl]propyl}-7-oxo-5-phenyl-7H-thieno[3,2-b]pyran-3-carboxamide] | – | – | – | –
